What all share (format): in vivo
Test [1] concerns Cotton. Description: Preemergence Herbicidal Activity, Cotton. The note with it: Gossypium hirsutum, pre-emergence, 1.0 kg/ha. In a few lines:
(§1)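 Applications are made pre- or postemergence from 50/50 acetone/water solutions of each compound. Effect is recorded as % C at the stated kg/ha rate.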

The subject of test [2] is Soybean. Description: Preemergence Herbicidal Activity, Soybean. The note with it: Glycine max, pre-emergence, 1.0 kg/ha. In a few lines: (§2)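 Percent control of the crop served as the read-out, with dosing stated in kilograms per hectare.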
Test [3] relates to Field Corn. Description: Preemergence Herbicidal Activity, Field Corn. The note with it: Zea mays, pre-emergence, 1.0 kg/ha. Put shortly:
as §2

In test [4] the test system is Rice. Description: Preemergence Herbicidal Activity, Rice. The following applies: Oryza sativa, pre-emergence, 1.0 kg/ha. Put shortly:
as §2

For test [5], the system named is Wheat. Description: Preemergence Herbicidal Activity, Wheat. The following applies: Triticum aestivum, pre-emergence, 1.0 kg/ha. In a few lines: as §2
Test [6] concerns Field Bindweed. Description: Preemergence Herbicidal Activity, Field Bindweed. The following applies: pre-emergence, 1.0 kg/ha. In a few lines:
as §1

The subject of test [7] is Morningglory. Description: Preemergence Herbicidal Activity, Morningglory. The following applies: Ipomoea, pre-emergence, 1.0 kg/ha. In a few lines: as §1
Test [8] concerns Velvetleaf. Description: Preemergence Herbicidal Activity, Velvetleaf. The note with it: Abutilon theophrasti, pre-emergence, 1.0 kg/ha. In a few lines: as §1
Test [9] relates to Barnyardgrass. Description: Preemergence Herbicidal Activity, Barnyardgrass. The following applies: Echinochloa crus-galli, pre-emergence, 1.0 kg/ha. Put shortly: (§3)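 Kilogram-per-hectare application rates; outcome scored by percent control of treated plants.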
For test [10], the system named is Green Foxtail. Description: Preemergence Herbicidal Activity, Green Foxtail. The note with it: Setaria viridis, pre-emergence, 1.0 kg/ha. Put shortly:
as §3

Test [11] deals with Johnsongrass. Description: Preemergence Herbicidal Activity, Johnsongrass. The note with it: Sorghum halepense, pre-emergence, 1.0 kg/ha. Put shortly: as §3
In test [12] the test system is Cotton. Description: Postemergence Herbicidal Activity, Cotton. The following applies: Gossypium hirsutum, post-emergence, 1.0 kg/ha. In a few lines: as §1
For test [13], the system named is Soybean. Description: Postemergence Herbicidal Activity, Soybean. The following applies: Glycine max, post-emergence, 1.0 kg/ha. In a few lines: as §2
Test [14] deals with Field Corn. Description: Postemergence Herbicidal Activity, Field Corn. The following applies: Zea mays, post-emergence, 1.0 kg/ha. In a few lines:
as §2

The subject of test [15] is Rice. Description: Postemergence Herbicidal Activity, Rice. The following applies: Oryza sativa, post-emergence, 1.0 kg/ha. In a few lines:
as §2

The subject of test [16] is Wheat. Description: Postemergence Herbicidal Activity, Wheat. The following applies: Triticum aestivum, post-emergence, 1.0 kg/ha. Put shortly:
as §2

The test system of test [17] is Field Bindweed. Description: Postemergence Herbicidal Activity, Field Bindweed. The note with it: post-emergence, 1.0 kg/ha. Put shortly: as §1
Test [18] concerns Morningglory. Description: Postemergence Herbicidal Activity, Morningglory. The note with it: Ipomoea, post-emergence, 1.0 kg/ha. In a few lines:
as §1

Test [19] deals with Velvetleaf. Description: Postemergence Herbicidal Activity, Velvetleaf. The note with it: Abutilon theophrasti, post-emergence, 1.0 kg/ha. In a few lines:
as §1

In test [20] the test system is Barnyardgrass. Description: Postemergence Herbicidal Activity, Barnyardgrass. The note with it: Echinochloa crus-galli, post-emergence, 1.0 kg/ha. Put shortly:
as §3

Test [21] relates to Green Foxtail. Description: Postemergence Herbicidal Activity, Green Foxtail. The following applies: Setaria viridis, post-emergence, 1.0 kg/ha. Put shortly:
as §3

Test [22] deals with Johnsongrass. Description: Postemergence Herbicidal Activity, Johnsongrass. The following applies: Sorghum halepense, post-emergence, 1.0 kg/ha. In a few lines: as §3
For another test, the system named is cotton or soybeans. Description: preemergence crop selectivity. The note with it: rates below about 1/4 or 1/10 kg/ha.

Regarding `CCCN(c1cc(-n2nnn(CCCF)c2=O)c(F)cc1Cl)S(=O)(=O)CC` [Compound 14], the plant injury at 1000 g/ha in the test with Cotton [1] amounted to 100%; with Soybean [2], 95%; with Field Corn [3] it was 100%; with Rice [4], 100%; with Wheat [5], 100%; in the test on Cotton [12] it was 100%. The plant injury at 1000 g/ha in the test with Soybean [13], with Field Corn [14], with Rice [15] and in the test on Wheat [16] was 100% in each case. For the same molecule, the pest or weed control at 1000 g/ha in the test on Field Bindweed [6], in the test with Morningglory [7], in the test with Velvetleaf [8], in the test on Barnyardgrass [9], in the test with Green Foxtail [10] and in the test on Johnsongrass [11] was 100% in each case. Also, the pest or weed control at 1000 g/ha in the test with Field Bindweed [17], with Morningglory [18], in the test on Velvetleaf [19], in the test on Barnyardgrass [20], in the test with Green Foxtail [21] and with Johnsongrass [22] was 100% throughout. Also, the herbicide selectivity entry in the test on cotton or soybeans is reported as “highly selective”.

(Values after patent publication US4868321A, “Isothiocyanate intermediates” (FMC Corporation, priority 1988, dated 1989).)
